Reference: ChEMBL document CHEMBL3352657 (J Med Chem, 2014)
Active and inactive are the calls of the source. The calls are words filed in the database; no cut-off is given here.

Columns and labels:
[1] = molecular target: T1, Neurotensin receptor type 2 (Rattus norvegicus, UniProt Q63384); test: Agonist activity at rat NTS2 receptor expressed in CHO-K1 cells assessed as calcium mobilization by FLIPR assay; type: functional, cell-based
T1 sequence (Q63384 whole entry): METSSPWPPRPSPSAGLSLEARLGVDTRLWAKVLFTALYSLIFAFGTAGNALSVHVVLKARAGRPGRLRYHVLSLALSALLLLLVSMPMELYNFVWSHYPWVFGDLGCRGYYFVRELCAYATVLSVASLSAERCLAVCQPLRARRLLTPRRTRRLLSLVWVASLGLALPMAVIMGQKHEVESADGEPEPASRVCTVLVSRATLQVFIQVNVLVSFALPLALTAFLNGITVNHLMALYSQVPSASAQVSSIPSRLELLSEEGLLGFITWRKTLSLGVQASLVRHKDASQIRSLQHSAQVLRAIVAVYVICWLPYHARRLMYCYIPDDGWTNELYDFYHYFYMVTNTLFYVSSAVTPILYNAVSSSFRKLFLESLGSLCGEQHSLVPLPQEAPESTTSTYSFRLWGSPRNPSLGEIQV

[2] = molecular target: T1, Neurotensin receptor type 2; test: Displacement of [125I]neurotensin from rat NTS2 receptor expressed in CHO-K1 cells by competitive binding assay; type: cell-based
[3] = molecular target: T1, Neurotensin receptor type 2; test: Antagonist activity at rat NTS2 receptor expressed in CHO-K1 cells assessed as inhibition of SR142948a-induced calcium mobilization by FLIPR assay; type: functional, cell-based
[4] = molecular target: Neurotensin receptor type 1 (Rattus norvegicus, UniProt P20789); test: Displacement of [125I]neurotensin from rat NTS1 receptor expressed in CHO-K1 cells by competitive binding assay; type: cell-based
[5] = molecular target: Neurotensin receptor type 1 (Rattus norvegicus) (UniProt P20789); test: Antagonist activity at rat NTS1 receptor expressed in CHO-K1 cells assessed as inhibition of […]-induced calcium mobilization by FLIPR assay; type: functional, cell-based
[6] = molecular target: Neurotensin receptor type 1 (Rattus norvegicus) (UniProt P20789); test: Agonist activity at rat NTS1 receptor expressed in CHO-K1 cells assessed as calcium mobilization by FLIPR assay; type: functional, cell-based

Sequence of Neurotensin receptor type 1 (P20789 whole entry): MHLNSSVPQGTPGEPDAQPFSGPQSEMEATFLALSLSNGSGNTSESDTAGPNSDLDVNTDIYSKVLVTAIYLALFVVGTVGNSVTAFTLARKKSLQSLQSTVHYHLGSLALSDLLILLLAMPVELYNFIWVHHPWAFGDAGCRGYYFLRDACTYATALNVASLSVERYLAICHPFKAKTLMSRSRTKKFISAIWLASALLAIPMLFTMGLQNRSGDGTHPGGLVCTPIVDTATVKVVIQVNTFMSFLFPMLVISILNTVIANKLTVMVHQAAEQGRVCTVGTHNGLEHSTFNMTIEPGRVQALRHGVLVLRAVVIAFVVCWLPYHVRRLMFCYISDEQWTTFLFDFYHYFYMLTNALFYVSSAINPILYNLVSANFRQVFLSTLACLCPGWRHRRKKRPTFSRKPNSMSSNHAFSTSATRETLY
Sequence of Neurotensin receptor type 1 (Rattus norvegicus) (P20789 whole entry): as above

Ki [2] | Ki [4] | EC50 ([1]; read-out: EC50) | inhibition [5] | Activity [6] | Structure (SMILES) | EC50 ([1]; cho-k1) | IC50 [3]
5.8 nM | 1.4 nM | 22 nM |  |  | COc1cccc(OC)c1-c1cc(C(=O)NC2(C(=O)O)C3CC4CC(C3)CC2C4)nn1-c1ccc(C(=O)N(C)CCCN(C)C)cc1C(C)C (stereo not drawn) |  | 
1500 nM | > 30000 nM |  | inactive | inactive | Cc1ccc(S(=O)(=O)Nc2ccc3c(ccn3CC(=O)N[C@@H](CC(C)C)C(=O)O)c2)cc1 | Not Active | 3320 nM

Structure (SMILES) | Ki [2] | Ki [4] | EC50 ([1]; read-out: EC50) | inhibition [5] | Activity [6] | EC50 ([1]; cho-k1) | IC50 [3]
Cc1ccc(S(=O)(=O)Nc2ccc3c(c2)c(C(=O)C(F)(F)F)cn3CC(=O)N[C@@H](CC(C)C)C(=O)O)cc1 | 202 nM | > 30000 nM |  |  |  | Not Active | 38 nM
